Assays:
Type in all cases: cell-based, human
MCF-7 cells = assay: MTT cytotoxicity dose-response assay, MCF-7; details: 72 h treatment, a/b/c = one, two, three or more dose-response curves
Experimental: (§1) The L56Br-C1 cell line was established at the Department of Oncology, Clinical Sciences, Lund University, Sweden. The JIMT-1 cell line was purchased from the German Collection of Microorganisms and Cell Cultures (Braunschweig, Germany) and the MCF-7, SK-BR-3, HCC1937, and MCF-10A cells were obtained from the American Tissue Type Culture Collection (Manassas, VA, USA). The cell lines were cultured as monolayers at 37°C in a humidified incubator with 5% CO2 in air. The MCF-10A cells have a population doubling time of 15 hours, the JIMT-1 cells 24 hours, and the other four cell lines around 35 hours.
(§2) The L56Br-C1, MCF-7, SK-BR-3, and HCC1937 cells were cultured as described by Holst et al. JIMT-1 cells were cultured in DMEM/Ham’s F12 medium supplemented with 10% fetal calf serum, non-essential amino acids (1 mM), insulin (10 μg/ml), penicillin (100 U/ml), and streptomycin (100 μg/ml). MCF-10A cells were maintained in RPMI 1640 medium supplemented with 10% heat-inactivated fetal calf serum, non-essential amino acids (1 mM), insulin (10 μg/ml), epidermal growth factor (20 ng/ml), cholera toxin (50 ng/ml), hydrocortisone (250 ng/ml), penicillin (100 U/ml), and streptomycin (100 μg/ml). The MCF-10A and JIMT-1 cell lines were sub-cultured twice a week, while the L56Br-C1, MCF-7, SK-BR-3, and HCC1937 cells were sub-cultured once a week with an additional change of growth medium once a week.
(§3) Stock solutions ([…]) of the compounds were made in 100% DMSO. These were further diluted in PBS to obtain the correct concentrations used for the MTT assay. Appropriate DMSO controls were used. In general, the highest DMSO concentration was 0.1%, however, when treating with 100 μM and starting from a […] in 100% DMSO, a final concentration of 1% DMSO was used as the control.
(§4) The MTT assay was performed as previously described. Briefly, the cells were trypsinized and counted in a hemocytometer. Aliquots of 180 μl cell suspensions containing 3000 (MCF-10A) and 6000 (MCF-7, SK-BR-3, JIMT-1, L56Br-C1, and HCC1937) cells were seeded in the wells of 96-well plates. Compounds were added 24 hours after seeding to allow the attachment of cells. A concentration range between 0.1 to 100 μM was used in the MTT assays and appropriate DMSO controls. At 72 h of drug treatment, 20 μl of MTT solution (5 mg/ml MTT in PBS) was added to each well and the 96-well plates were returned to the CO2 incubator for 1 hour. The MTT-containing medium was removed. The blue formazan product formed by the reduction in live attached cells was dissolved by adding 100 μl of 100% DMSO per well after removal of the MTT-containing medium. The plates were swirled gently at room temperature for 10 minutes to dissolve the precipitate. Absorbance was monitored at 540 nm in a Labsystems iEMS Reader MF (Labsystems Oy, Helsinki, Finland) using the DeltaSoft II v.4.14 software (Biometallics Inc., Princeton, NJ, USA). Dose-response curves were drawn based on the % of the control in Excel. The IC50 was deduced from the curves.

L56Br-C1 cells = assay: MTT cytotoxicity dose-response assay, L56Br-C1; details: 72 h treatment, a/b/c = one, two, three or more dose-response curves
Experimental: as §1, §2, §3, §4

SK-BR-3 cells = assay: MTT cytotoxicity dose-response assay, SK-BR-3; details: Homo sapiens, SK-BR-3, 72 h, 72 h treatment, a/b/c = one, two, three or more dose-response curves
Experimental: as §1, §2, §3, §4

HCC1937 cells = assay: MTT cytotoxicity dose-response assay, HCC1937; details: 72 h treatment, a/b/c = one, two, three or more dose-response curves
Experimental: as §1, §2, §3, §4

JIMT-1 cells = assay: MTT cytotoxicity dose-response assay, JIMT-1; details: 72 h treatment, a/b/c = one, two, three or more dose-response curves
Experimental: as §1, §2, §3, §4

[1] = MTT cytotoxicity dose-response assay, MCF-10A (non-cancerous); details: human, MCF-10A cells (normal-like breast epithelial cell line), 72 h treatment, a/b/c = one, two, three or more dose-response curves
Experimental: as §1, §2, §3, §4

[2] = system: breast cancer cell lines HCC1937, JIMT-1, L56Br-C1, MCF-7, and SK-BR-3; assay: MTT assay, panel of five breast cancer cell lines; details: breast cell lines, comparison among the tested compounds
Experimental: The anticancer activities of sesquiterpenes 1, 3, 6–9, 11, 12, 14, and 16 were assessed in five breast-cancer cell lines, HCC1937, JIMT-1, L56Br-C1, MCF-7, and SK-BR-3, and compared with the cytotoxicity in the breast-derived non-cancerous cell line MCF-10A using the MTT colorimetric assay. […] 16 is an unsaturated ester and differs in that respect from the other compounds, but the lower activity of 3 compared to the similar compounds was unexpected. Costunolide (1) differs from the eudesmane sesquiterpenes by having the unsaturated lactone fused with a macrocyclic system instead of a cyclohexane ring, and the tension of the lactone ring is likely to be lower in 1. […] The difference in the activities of 7 and 8 may depend on the higher lipophilicity of 8, facilitating its absorption into the cells. In 11 and 14, the presence of a second Michael acceptor function may influence the activity. […] MCF-7 has a normal wild type p53 gene, which the MCF-10A cells also have, while the others have a mutated p53.
as §3, §4

MCF-10A cells = assay: MTT cytotoxicity dose-response assay, MCF-10A (non-cancerous); details: normal-like breast epithelial cell line, 72 h treatment, a/b/c = one, two, three or more dose-response curves
Experimental: as §1, §2, §3, §4

Compound	IC50 (MCF-7 cells; Homo sapiens, MCF7, 72 h) [µM]	IC50 (L56Br-C1 cells; Homo sapiens, 72 h) [µM]	IC50 (SK-BR-3 cells) [µM]	IC50 (HCC1937 cells; Homo sapiens, HCC1937, 72 h) [µM]	IC50 (JIMT-1 cells) [µM]	IC50 (JIMT-1 cells; Homo sapiens, JIMT-1, 72 h) [µM]	IC50 at 72 h [1] [µM]	IC50 (MCF-7 cells) [µM]	IC50 (L56Br-C1 cells) [µM]	IC50 (HCC1937 cells) [µM]	Anticancer activity / relative potency in words [2]	IC50 (MCF-10A cells) [µM]
C=C1CC[C@@H](O)[C@]2(C)CC[C@H]3C(=C)C(=O)O[C@@H]3[C@@H]12 [Compound 6, reynosin]	16.4 ± 7.1	11	5.2 ± 1.6	10	12	8.5	17					
C=C1C(=O)O[C@H]2[C@H]1CCC(C)=C1[C@@H](OC(C)=O)[C@H]3O[C@@]3(C)[C@@H]12 [Compound 12, 2β-acetoxy-3α,4α-epoxy-3,4-dihydrokauniolide]	7.1	6	4.2 ± 1.1	6	10.1	7.1		8.3	10.1	7.8		
C=C(C(=O)OC)C1CCC2(C)C(O)CCC(=C)C2C1O (stereo not drawn) [Compound 16, baynol C]	27.4 ± 17.2	16	9.9 ± 3	24	23	13	29				lowest activity	
C=C1C(=O)O[C@@H]2[C@@H]3[C@@](C)(CC[C@@H]12)[C@@H](OC(C)=O)CC[C@]3(C)O (relative stereo) [Compound 3, (+)-(3aS*,5aR*,6S*,9S*,9aS*,9bS*)-9-Hydroxy-5a,9-dimethyl-3-methylidene-2-oxododeca-hydronaphtho[1,2-b]furan-6-yl acetate]	27	9.3	10.1	23		18	38				lowest activity	
C=C1C(=O)OC2C1CCC1(C)C(=O)C=CC(C)(O)C21 (stereo not drawn) [Compound 11, 11,13-didehydrovulgarin]	10.1	3.6	4.2 ± 2.1	4.8	13	10	24	18		7.8		21
C=C1CC[C@H](OC(C)=O)[C@]2(C)CC[C@H]3C(=C)C(=O)O[C@@H]3[C@@H]12 (relative stereo) [Compound 8, (3aS*,5aR*,6S*,9aS*,9bS*)-5a-Methyl-3,9-dimethylidene-2-oxododecahydro-naphtho[1,2-b]furan-6-yl acetate]	11 ± 1.7	8.4	4.7 ± 1.1		7	6.3	24		12			
